How the values were obtained:
Type in all cases: in vivo, male C57/BL mice
[1] = tested on: TNF-α, IL-1β, IL-6, iNOS, and COX2; assay: Immunofluorescence of pro-inflammatory factors in brain tissue; details: 72 h, P<0.001; for Number of pro-inflammatory factor-positive cells compared with MCAO group: three days of administration, compound 2 100 mg/kg, compound 1 50 mg/kg
Experimental: (§1) Grouping and administration method: Male C57/BL mice weighing 23±1 g were randomly divided into sham operation group (SHAM), model group (MCAO), compound 2 group (100 mg/kg), and compound 1 group (50 mg/kg), with 10 mice in each group. Mice in the SHAM group underwent vascular isolation, but no […] was administered, and no treatment was given before or after surgery. The model group mice were constructed with MCAO models and were not treated before and after surgery. The treatment group was treated with compound 2 or compound 1 on the basis of the model group. Mice with a neurological score of 0 after reperfusion and those that died before 72 hours post-surgery were excluded. The administration time for animal behavior tests was seven times at 0 h, 1 day, 2 days, 3 days, 4 days, 5 days, and 6 days after reperfusion, while the administration time for other experiments was three times at 0 h, 1 day, and 2 days after reperfusion. The drug was administered through the tail vein, and the sham operation group and model group were given equal amounts of saline.
(§2) To investigate the effect of compounds on the expression of inflammatory factors after ischemia-reperfusion, this study used immunofluorescence experiments to observe the expression of TNF-α, IL-1β, IL-6, iNOS, and COX2 proteins in brain tissue. RT-qPCR experiments were used to detect the mRNA gene expression of pro-inflammatory factors TNF-α, IL-1β, IL-6, iNOS, and COX2 in the sham operation group, model group, compound 2 group, and compound 1 group. The concentrations of TNF-α, IL-1β, and IL-6 in brain homogenate were detected by enzyme-linked immunosorbent assay (ELISA), and the expression level of TNF-α protein in brain tissue was detected by Western blot.
After 72 hours of ischemia-reperfusion, the expression changes of inflammatory factors such as TNF-α, IL-1β, IL-6, iNOS, and COX2 in brain regions were analyzed by immunofluorescence staining. […]

IL-6 = assay: ELISA of IL-6 in brain homogenate; details: 72 h, three days of administration, compound 2 100 mg/kg, compound 1 50 mg/kg
Experimental: as §1, with “The administration time for animal behavior tests was seven times at 0 h, 1 day, 2 days, 3 days, 4 days, 5 days, and 6 days after reperfusion, while the administration time for other experiments was three times at 0 h, 1 day, and 2 days after reperfusion. The drug was administered through the tail vein, and the sham operation group and model group were given equal amounts of saline.” left out
as §2, with “RT-qPCR experiments were used to detect the mRNA gene expression of pro-inflammatory factors TNF-α, IL-1β, IL-6, iNOS, and COX2 in the sham operation group, model group, compound 2 group, and compound 1 group.” left out
After 72 hours of ischemia-reperfusion, the expression levels of inflammatory factors TNF-α, IL-1β, and IL-6 in the mouse brain homogenate were detected.

MCAO model mice = assay: Body weight change after ischemia-reperfusion
Experimental: as §1
At the same time, the weight change and survival rate of mice after ischemia-reperfusion were analyzed.

TNF-α = TNF-α protein Western blot in brain tissue; details: 72 h; for TNF-α protein expression reduced compared with MCAO group: three days of administration, compound 2 100 mg/kg, compound 1 50 mg/kg, P<0.001
Experimental: as §1
as §2, with “RT-qPCR experiments were used to detect the mRNA gene expression of pro-inflammatory factors TNF-α, IL-1β, IL-6, iNOS, and COX2 in the sham operation group, model group, compound 2 group, and compound 1 group.” left out
After 72 hours of ischemia-reperfusion, the expression level of TNF-α protein in brain tissue was detected by Western blot. […] In this experiment, β-actin was used as an internal reference protein. n=3, data are presented as mean±SEM, analyzed with one-way ANOVA, and subjected to Tukey's HSD test. *P<0.05, **P<0.01, ***P<0.001. ^#P<0.05, ^##P<0.01, ^###P<0.001. * indicates a comparison with the SHAM group, ^# indicates a comparison with the compound 2 group.

HIF-1α = HIF-1α immunofluorescence in brain tissue; details: 72 h ischemia-reperfusion, three days of administration; compound 2 100 mg/kg, compound 1 50 mg/kg; MCAO group 568±60; mean±SEM, n=3
Experimental: as §1, with “The administration time for animal behavior tests was seven times at 0 h, 1 day, 2 days, 3 days, 4 days, 5 days, and 6 days after reperfusion, while the administration time for other experiments was three times at 0 h, 1 day, and 2 days after reperfusion. The drug was administered through the tail vein, and the sham operation group and model group were given equal amounts of saline.” left out
After 72 hours of ischemia-reperfusion, the expression changes of the inflammatory factor HIF-1α in the brain region were analyzed by immunofluorescence staining. […] Compared with the compound 1 group, the number of HIF-1α-positive cells in the compound 2 group was lower (197±33 vs 250±54/mm^2, P<0.001). n=3, data are presented as mean±SEM, analyzed using one-way ANOVA, and subjected to Tukey's HSD test. *P<0.05, **P<0.01, ***P<0.001. ^#P<0.05, ^##P<0.01, ^###P<0.001. * indicates a comparison with the MCAO group, ^# indicates comparison with the compound 2 group.

COX2 = assay: RT-qPCR of COX2 mRNA in brain tissue; details: 72 h, three days of administration, compound 2 100 mg/kg, compound 1 50 mg/kg, P<0.001
Experimental: as §1, with “The administration time for animal behavior tests was seven times at 0 h, 1 day, 2 days, 3 days, 4 days, 5 days, and 6 days after reperfusion, while the administration time for other experiments was three times at 0 h, 1 day, and 2 days after reperfusion. The drug was administered through the tail vein, and the sham operation group and model group were given equal amounts of saline.” left out
as §2, with “RT-qPCR experiments were used to detect the mRNA gene expression of pro-inflammatory factors TNF-α, IL-1β, IL-6, iNOS, and COX2 in the sham operation group, model group, compound 2 group, and compound 1 group.” left out
After 72 hours of ischemia-reperfusion, the mRNA expression levels of TNF-α, IL-1β, IL-6, iNOS, and COX2 in brain tissue were detected and analyzed by RT-qPCR. […]

Compound	Number of pro-inflammatory factor-positive cells compared with MCAO group [1]	Decrease in IL-6 expression compared with MCAO group (IL-6)	Body weight compared with the compound 2 group (MCAO model mice; 7th day after reperfusion, compound 1 50 mg/kg vs compound 2 100 mg/kg, P<0.05)	TNF-α protein expression reduced compared with MCAO group (TNF-α) [%]	Number of HIF-1α-positive cells (HIF-1α)	COX2 mRNA expression compared with MCAO group (COX2)	Density of pro-inflammatory factor-positive cells compared with the compound 1 group ([1]; compound 2 100 mg/kg vs compound 1 50 mg/kg)	Body weight compared with MCAO group (MCAO model mice; 7th day of reperfusion, 100 mg/kg tail vein)	TNF-α protein expression decreased compared with the compound 1 group (TNF-α; compound 2 100 mg/kg vs compound 1 50 mg/kg, P<0.05) [%]
O=C(O)c1cc(O)ccc1O [compound 1]	significantly decreased	reduced to varying degrees	significantly decreased	20±10	250±54 /mm^2	significantly reduced			
O=C(O)c1cc(OP(=O)(O)O)ccc1OP(=O)(O)O [compound 2]	significantly decreased	40±10%		40±12	197±33 /mm^2	significantly reduced	significantly reduced	inhibited the decrease in body weight	31±20

— patent US20250352500A1, “USE OF PHENOLIC ACIDS DERIVATIVES IN TREATING ISCHEMIC STROKE” (LANZHOU UNIVERSITY, priority 2022, published 2025)
